Results taken from US8188001B2, “Fungicidal mixtures” (BASF Aktiengesellschaft, priority 2002, dated 2012).

What was measured:
[1] = tested on: Sphaerotheca fuliginea; test: Protective activity against mildew of cucumber, spray on potted cucumber seedlings; assay type: in vivo; details: cucumber cv. chinese snake, 7 days
Description: (§1) The active compounds, separately or together, were formulated as a 10% emulsion in a mixture of 85% by weight of cyclohexanone and 5% by weight of emulsifier, and diluted with water to the desired concentration.
(§2) Evaluation was carried out by determining the infected leaf areas in percent. These percentages were converted into efficacies. The efficacy (W) was calculated as follows using Abbot's formula:
(§3) [formula] • α corresponds to the fungal infection of the treated plants in % and • β corresponds to the fungal infection of the untreated (control) plants in %.
(§4) An efficacy of 0 means that the infection level of the treated plants corresponds to that of the untreated control plants; an efficacy of 100 means that the treated plants were not infected.
(§5) The expected efficacies of the mixtures of the active compounds were determined using Colby's formula [R. S. Colby, Weeds 15, 20-22 (1967)] and compared with the observed efficacies. Colby formula: E=x+y−xy/100 • E expected efficacy, expressed in % of the untreated control, when using the mixture of the active compounds A and B at the concentrations a and b • x efficacy, expressed in % of the untreated control, when using active compound A at a concentration of a • y efficacy, expressed in % of the untreated control, when using active compound B at a concentration of b.
Use example 2: Protective activity against mildew of cucumber caused by Sphaerotheca fuliginea
Leaves of cucumber seedlings of the cultivar “chinese snake”, grown in pots, were, at the cotyledon stage, sprayed to runoff point with an aqueous preparation of active compound which had been prepared from a stock solution comprising 10% of active compound, 85% of cyclohexanone and 5% of emulsifier. 20 hours after the spray coating had dried on, the plants were inoculated with an aqueous spore suspension of mildew of cucumber (Sphaerotheca fuliginea). The plants were then cultivated in a greenhouse at 20-24° C. and 60-80% relative atmospheric humidity for 7 days. The extent of the mildew development was then determined visually in % infection of the cotyledon area. The visually determined values for the percentage of diseased leaf areas were converted into efficacies in % of the untreated control. An efficacy of 0 means the same disease level as in the untreated control, an efficacy of 100 means a disease level of 0%. The expected efficacies for the combinations of active compounds were determined using Colby's formula, mentioned above, and compared with the observed efficacies.

[2] = tested on: Erysiphe [syn. Blumeria] graminis form a specialis. tritici; test: Activity against mildew of wheat, protective spray on potted wheat seedlings; assay type: in vivo; details: wheat cv. Kanzler, 7 days
Description: as §1, §2, §3, §4, §5
Use example 1: Activity against mildew of wheat caused by Erysiphe [syn. Blumeria] graminis form a specialis. tritici
Leaves of wheat seedlings of the cultivar “Kanzler”, grown in pots, were sprayed to runoff point with an aqueous preparation of active compound which had been prepared from a stock solution comprising 10% of active compound, 85% of cyclohexanone and 5% of emulsifier, and 24 hours after the spray coating had dried on, the leaves were dusted with spores of mildew of wheat (Erysiphe [syn. Blumeria] graminis form a specialis. tritici). The test plants were then placed in a greenhouse at 20-24° C. and 60-90% relative atmospheric humidity. After 7 days, the extent of the mildew development was determined visually in % infection of the entire leaf area.
The visually determined values for the percentage of diseased leaf areas were converted into efficacies in % of the untreated control. An efficacy of 0 means the same disease level as in the untreated control, an efficacy of 100 means a disease level of 0%. The expected efficacies for the combinations of active compounds were determined using Colby's formula, mentioned above, and compared with the observed efficacies.

SMILES	Efficacy in % of the untreated control ([1]; 0.06 ppm in the spray liquor)	Efficacy in % of the untreated control ([1]; 0.25 ppm in the spray liquor)	Efficacy in % of the untreated control ([1]; 4 ppm in the spray liquor)	Efficacy in % of the untreated control ([2]; 0.06 ppm in the spray liquor)	Efficacy in % of the untreated control ([2]; 0.25 ppm in the spray liquor)	Efficacy in % of the untreated control ([2]; 1 ppm in the spray liquor)	Efficacy in % of the untreated control ([2]; 4 ppm in the spray liquor)	Efficacy in % of the untreated control ([1]; 0.015 ppm in the spray liquor)	Efficacy in % of the untreated control ([1]; 1 ppm in the spray liquor)	Efficacy in % of the untreated control ([2]; 0.015 ppm in the spray liquor)
O=C(Nc1ccccc1-c1ccc(Cl)cc1)c1cccnc1Cl [Compound II, boscalid]	0%	0%	78%	0%	0%	0%	0%			
O=C(Cc1ccccc1)N/C(=N\OCC1CC1)c1c(OC(F)F)ccc(F)c1F [Compound VI]	33%			0%	53%			0%		
Cc1ccc(-c2c(Cl)nc(C#N)n2S(=O)(=O)N(C)C)cc1 [Compound XI, cyazofamid]				0%	22%	22%				
OC(Cc1ccccc1Cl)(Cn1nc[nH]c1=S)C1(Cl)CC1 (stereo not shown) [Compound I, 2-[2-(1-chlorocyclopropyl)-3-(2-chlorophenyl)-2-hydroxypropyl]-2,4-dihydro-[1,2,4]-triazole-3-thione]		56%			0%	0%	42%		78%	
COc1cc(C)c(C(=O)c2c(OC)ccc(Br)c2C)c(OC)c1OC [Compound IV, metrafenone]	0%			53%				0%		30%
N#Cc1sc2c(=O)c3ccccc3c(=O)c=2sc1C#N [Compound VIII, dithianon]						0%	0%			
